PMC8002072, “A Novel Vasoactive Peptide “PG1” from Buffalo Ice-Cream Protects from Angiotensin-Evoked High Blood Pressure” (Antioxidants, 2021)
Where a SMILES comes first, the peptide text is derived from it.

Columns and labels:
Caco-2 cell monolayers [1] = experiment: Caco-2 cell monolayers permeation experiments; type: in vitro ADME, human
Description: (§2) The colorectal adenocarcinoma (Caco-2) cell line was purchased from ATCC (Rockville, MD, USA). Cells were cultured in DMEM high glucose (4.5 g/L) with 2 mM L-glutamine and 10% (v/v) heat-inactivated fetal bovine serum. Cells were maintained at 37 °C in a humidified 5% CO2 atmosphere. Differentiation experiments were performed in a 12-well multiwell in transwell inserts (PET membrane, 0.4 µm pore size, 0.30 cm^2 surface area), plating Caco-2 at 2.6 × 10^5 cells/cm^2 for 21 days in complete medium, changed every other day.
(§3) The integrity of the monolayers was evaluated by means of the transepithelial electrical resistance (TEER) measurement using an EVOM2 epithelial voltohmmeter (World Precision Instruments, Sarasota, FL, USA). […] For the permeation assays, only intact monolayers with TEER higher than 300 Ω × cm^2 were used. In brief, PET membranes were washed for 15–20 min at 37 °C with pre-warmed Hank’s balanced salt solution (HBSS) buffered with 25 mM HEPES and NaHCO3 (0.35 g/L) to adjust pH at 7.4, or with 10 mM methanesulfonic acid to adjust pH at 6.5. HBSS was added both to the apical (0.3 mL) and to the basolateral (0.9 mL) transwell compartments, as previously described [22].
(§4) For transport experiments, donor solution containing PG1 peptide was added to the apical compartment. […]
(§5) The apparent permeability coefficient (Papp) was calculated according to the Equation (1). The donor concentration was recalculated by subtracting the cumulative amount transported to the receiver chamber for each time interval:(1) CD(ti)=CD(ti−1)−CRti−f×CRti−1×VR/VD CD (ti) and CR (ti) (μM): donor and receiver chamber concentrations calculated at each sample occasion (i) from the donor and receiver concentrations at the previous occasion CD (ti−1) and CR (ti−1), respectively; f = 1 − VS/VR: sample replacement dilution factor; VS (cm^3): sample volume; VR (cm^3): receiver chamber volume; VD (cm^3): donor chamber volume.

[2] = tested on: pancreatin (from the porcine pancreas), chymotrypsin (from bovine pancreas); experiment: Enzymatic stability with digestive enzymes; type: in vitro ADME; conditions: chymotrypsin and bile salts, peptide/enzyme 1:10 or 1:100 w/w, 37 °C, 180 min, LC-MS/MS
Description: (§1) The peptide (5 µM) was incubated for 3 h and monitored by mass spectrometry experiments. On the other hand, the assessment of PG1 enzymatic stability was performed by treating the peptide with digestive enzymes. In detail, pentapeptide was incubated with pancreatin (from the porcine pancreas), chymotrypsin (from bovine pancreas) and bile salts. Digestive reactions were carried out at 37 °C for 180 min with 1:10 or 1:100 peptide/enzyme ratio, w/w. Finally, the mixture was centrifuged at 4000× g at 4 °C for 10 min, and PG1 peptide was collected at time 0 and at the end of the experiment and then analyzed by LC-MS/MS for the mass balance calculation.

[3] = Microsomal stability assay; type: in vitro ADME; conditions: human microsomes 20 mg/mL stock (5 μL in 200 µL), PG1 1 mM stock (2 μL), 100 mM phosphate buffer pH 7.4, 5 min pre-incubation, NADPH, 37 °C, 60 min, LC-MS/MS; mean ± SEM; read-out: parent compound turnover percentage
Description: 2 μL of PG1 peptide (1 mM) were incubated with 183 µL of 100 mM phosphate buffer (pH 7.4), and 5 μL of 20 mg/mL human microsomes (Thermo Fisher Scientific, Bremen, Germany). After pre-incubation in a water bath for 5 min, the mixture was added with 10 μL of the 20 mM NADPH at further incubated at 37 °C for 60 min. The reaction was stopped with ice-cold methanol, centrifuged at 10,000 rpm at room temperature for 5 min and analyzed by LC-MS/MS. Three controls were used: T0 reference was obtained stopping the microsomal reaction by addition of the organic solvent immediately after incubation with microsomes. As positive and negative controls were used testosterone and PG1 solution incubated without NADPH. The extent of metabolism is expressed as a percentage of the parent compound turnover using the following equation:(2) % Parent compound turnover = 100 − [concentration at 60 min/concentration at 0 min × 100]

Caco-2 cell monolayers [4] = experiment: Caco-2 monolayer integrity (zonulin-1 immunofluorescence) and cell vitality; type: cell-based, human; conditions: PG1 25 μM, 3 h; zonulin-1 expression and cell vitality (crystal violet); Figure S2
Description: To evaluate the effect of PG1 peptide on colorectal adenocarcinoma (Caco-2) cells, the cells were plated in 48-well plates at a density of 36 × 10^3 cells/well. After 24 h, the Hanks’ Balanced Salt solution containing PG1 peptide at the indicated concentrations was added to the wells. The cells were examined after 3 h through microscope analysis. Finally, cells’ viability was assessed by the use of Crystal Violet Staining Solution.
All experiments were performed in triplicate, and the relative cell viability was expressed as a percentage in comparison with the untreated control cells.
Integrity of monolayers was evaluated at the end of transport experiments fixing the PET membranes with 4% paraformaldehyde (PFA) for 15 min after a wash with PBS. Membranes were then incubated with blocking solution (0.1% Triton, 1% BSA, 0.02% sodium azide, 50 mM ammonium chloride) for 20 min at room temperature in the dark, followed by incubation with anti-zonulin 1 antibody (#402200, Invitrogen, Thermo Fisher Scientific, Waltham, MA, USA) at 2 μg mL^−1 (RT, 2 h). […] Slides were examined under a Nikon fluorescence inverted microscope (Nikon Instruments Europe, Firenze, Italy) and analyzed as described.
Figure S2. (A) Fluorescence micrograph of the Caco-2 cell monolayers. […]
Original magnification 200X. […] Results are expressed as mean (± SD), and are representative of three independent experiments. […]

[5] = Caco-2 cell monolayers permeation experiments; type: in vitro ADME, human; conditions: human; Caco-2 monolayers, HBSS, 180 min, UHPLC-MS/MS; read-out: efflux ratio (Papp,b/a/Papp,a/b)
Description: as §2, §3, §4, §5

[6] = Chemical stability in simulated enteric lumen; type: physicochemical; conditions: 5 µM peptide, 10 mM HCOONH4 pH 7.5, 37 °C, 3 h, mass spectrometry
Description: In order to determine pharmacokinetic properties of a synthetic peptide, we have evaluated its chemical stability during in vitro simulated GI digestion. In detail, we have recreated the enteric lumen by alkalinization at pH = 7.5 with 10 mM HCOONH4 buffer.
as §1

[7] = Serum concentration of PG1 in treated mice; type: in vivo; conditions: mouse, mice treated with PG1 (10 mg/Kg daily), ACN/0.1% TFA extraction, LC-MS/MS, LOQ 8.6 pM, mean ± SEM, read-out: serum concentration of pentapeptide
Description: For the determination of serum concentration of pentapeptide in mice treated with PG1, blood samples were taken from the ventricle, performing a slow withdrawal to prevent the heart collapsing, to obtain a large quantity of high-quality blood. After collection, samples were rapidly centrifuged at 800 g to separate and collect serum. Extraction was conducted with ice-cold ACN plus 0.1% TFA (100 µL serum + 200 µL ACN). Samples were vortexed for 30 s and then centrifuged for 5 min at 10,000 rpm (Eppendorf Centrifuge model 5425). The supernatant was dried under nitrogen steam and reconstituted in 50:50 H2O/ACN. Calibration curve prepared by serial dilution of synthetic peptide solubilized in water in over the range 200–10 pM (y = 0.0167x + 0.7127, R^2 = 0.9998, LOD = 2.8 pM, LOQ = 8.6 pM).

CC(C)NCC(O)COc1cccc2ccccc12 (centres unmarked) [propranolol, reference compound]
apparent permeability coefficient (Papp) of monolayer control (Caco-2 cell monolayers [1]; Caco-2 monolayers 21 days, transwell, HBSS, LC-MS/MS (SRM), integrity/reference marker): 8.05 ± 0.16 × 10^−5 cm/s

CSCC[C@H](NC(=O)[C@@H]1CCCN1C(=O)[C@H](CCC(=O)O)NC(=O)[C@H](CCCCN)NC(=O)[C@@H](N)CCC(N)=O)C(=O)O [PG1, Gln-Lys-Glu-Pro-Met] (H-QKEPM-OH)
enzymatic stability (hydrolysis) [2]: not hydrolysed
metabolised at 1 h, 10 µM [3]: ~13.2%
Caco-2 cell monolayers integrity (Caco-2 cell monolayers [4]): preserved
dependence of transmembrane uptake on proton gradient (Caco-2 cell monolayers [1]; Caco-2 monolayers, HBSS pH 7.4 or pH 6.5): independent of the proton gradient
efflux ratio at 180 min [5]: < 1
chemical stability [6]: high peptide stability for up to 3 h
level at time molar [7]: ~0.017 nM
